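Method: 48-hour compound exposure of cells in 96-well plates, five concentrations, linear interpolation of endpoints. GI50 marks 50% less growth.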 Activity calls are given as the source filed them. No stated cut-off is given here; in the data, active = GI50 up to about 1.1 µM and inactive = higher.
What was measured:
Experiment in all cases: NCI anticancer screen, dose series, 48 h
[1] = tested on: TK-10
[2] = tested on: HCC 2998
[3] = tested on: HCT-116
[4] = tested on: UACC-62
[5] = tested on: HT-29
[6] = tested on: LOX IMVI
[7] = tested on: OVCAR-4
[8] = tested on: HOP-92
[9] = tested on: OVCAR-8
[10] = tested on: 786-0
[11] = tested on: IGROV-1
[12] = tested on: CAKI-1
[13] = tested on: SF-295
[14] = tested on: M14
[15] = tested on: NCI-H460
[16] = tested on: KM12
[17] = tested on: ACHN

Measured: GI50

NC(CCSC(F)F)C(=O)O (configuration not stated)
inactive: [1] > 100 µM | [2] > 100 µM | [3] > 100 µM | [4] > 100 µM | [5] > 100 µM | [6] > 100 µM | [7] > 100 µM | [8] > 100 µM | [9] > 100 µM | [10] > 100 µM | [11] > 100 µM | [12] > 100 µM | [13] > 100 µM | [14] > 100 µM | [15] > 100 µM | [16] > 100 µM | [17] > 100 µM

Cc1c(N2CCOCC2)nc2ccc(Cl)cc2c1-c1ccccc1
inactive: [1] > 100 µM | [2] 40.9 µM | [3] 56.9 µM | [4] > 100 µM | [5] 57.1 µM | [6] 49.4 µM | [7] 50.7 µM | [8] 42.7 µM | [9] > 100 µM | [10] 95.9 µM | [11] > 100 µM | [12] 76.4 µM | [13] > 100 µM | [14] > 100 µM | [15] 58.3 µM | [16] 87.9 µM | [17] 69 µM

CCOP(=O)(OCC)/C(C#N)=C\c1ccc(OC(C)=O)cc1
inactive: [1] > 100 µM | [2] > 100 µM | [3] > 100 µM | [4] > 100 µM | [5] > 100 µM | [6] > 100 µM | [7] > 100 µM | [8] > 100 µM | [9] > 100 µM | [10] > 100 µM | [11] > 100 µM | [12] > 100 µM | [13] > 100 µM | [14] > 100 µM | [15] > 100 µM | [16] > 100 µM | [17] > 100 µM

O=C(CC1C(=O)Nc2ccccc2S1(=O)=O)Nc1cccc(Cl)c1 (configuration not stated)
inactive: [1] 22.3 µM | [2] 18.2 µM | [3] 18.2 µM | [4] 15.1 µM | [5] 17.5 µM | [6] 15.2 µM | [7] 20.1 µM | [8] 16.1 µM | [9] 17.8 µM | [10] 14.1 µM | [11] 18.9 µM | [12] 21.1 µM | [13] 24.7 µM | [14] 18.8 µM | [15] 16.7 µM | [17] 16.9 µM

O=C1O[B-](c2ccccc2)(c2ccccc2)[NH2+]C1CS (configuration not stated)
inactive: [1] 85.1 µM | [2] 49.7 µM | [3] 33.7 µM | [4] 42 µM | [5] 71.3 µM | [6] 24.3 µM | [7] 47.2 µM | [8] 27.3 µM | [9] > 100 µM | [10] 21.4 µM | [11] 78 µM | [12] 35.6 µM | [13] > 100 µM | [14] 52.6 µM | [15] 66.1 µM | [16] 31.8 µM | [17] 36.7 µM

CCCOP1(=O)C=CC(Cl)=C(C)C1 (configuration not stated)
inactive: [1] 42.4 µM | [2] > 63.1 µM | [3] 17.1 µM | [4] 19.1 µM | [5] 55.3 µM | [6] 32.3 µM | [7] 36.6 µM | [8] 33.1 µM | [9] 21.1 µM | [10] 27.7 µM | [11] 97.7 µM | [12] 32.4 µM | [13] 45.8 µM | [14] 33 µM | [15] 50.7 µM | [16] 20.8 µM | [17] 24.9 µM

Cc1c(/C=N/NC(=O)c2cc(Br)cc(Br)c2O)c(=O)n(-c2ccccc2)n1C
inactive: [1] 69.8 µM | [2] > 100 µM | [3] 56.4 µM | [4] 19.6 µM | [5] 64.7 µM | [6] 6.53 µM | [7] > 100 µM | [8] 30.1 µM | [9] 27.5 µM | [10] 92 µM | [11] 1.22 µM | [12] 25.2 µM | [13] > 100 µM | [14] 36.9 µM | [15] 39.2 µM | [16] 33.8 µM | [17] 51.1 µM

COc1nc2nccc-2c2occn12
inactive: [1] > 100 µM | [2] > 100 µM | [3] > 100 µM | [4] > 100 µM | [5] > 100 µM | [6] > 100 µM | [7] > 100 µM | [8] > 100 µM | [9] > 100 µM | [10] > 100 µM | [11] > 100 µM | [12] > 100 µM | [13] > 100 µM | [14] > 100 µM | [15] > 100 µM | [16] > 100 µM | [17] > 100 µM

CCOC(=O)C1=C(O)C(=O)c2cc(C)ccc2C1=O
inactive: [1] > 100 µM | [2] > 100 µM | [3] 81.7 µM | [4] 44.1 µM | [5] > 100 µM | [6] 55.2 µM | [7] > 100 µM | [8] > 100 µM | [9] > 100 µM | [10] > 100 µM | [11] > 100 µM | [12] > 100 µM | [13] 54.3 µM | [14] 54.8 µM | [15] > 100 µM | [16] > 100 µM | [17] > 100 µM

— ChEMBL document CHEMBL1201862, “PubChem BioAssay data set” (2004)
